Reference: patent US10268799B2, “Screening methods for thyroid hormone disruptors based on co-regulator involved simulations” (Nanjing University, priority 2016, dated 2019)
“Also recorded” adds a separate entry of the source.

Experiments:
[1] = test system: GH3 cells; assay: GH3 cell proliferation assay (anti-TH potency); assay type: cell-based, rat; details: for −log RIC20 (relative anti-TH potency): RIC20 (mol/L) is 20% inhibition of proliferation of GH3 cells induced by 0.5 nM T3; for TH disrupting effect determined in GH3 proliferation assay: result in words
Procedure: The rat pituitary tumor cell line GH3 was cultured for determination of the relative TH disrupting potencies. […] Due to cytotoxicity, the other 3 HO-PBDEs were not tested for anti-TH potencies.

[2] = molecular target: T1, human TRα-LBD (Homo sapiens, UniProt P10827); assay: Competitive binding assay with Fluorescein-labeled T3 probe, human TRα; details: result in words (FIG. 2A)
T1 sequence (P10827 163-410 isoform P10827-2): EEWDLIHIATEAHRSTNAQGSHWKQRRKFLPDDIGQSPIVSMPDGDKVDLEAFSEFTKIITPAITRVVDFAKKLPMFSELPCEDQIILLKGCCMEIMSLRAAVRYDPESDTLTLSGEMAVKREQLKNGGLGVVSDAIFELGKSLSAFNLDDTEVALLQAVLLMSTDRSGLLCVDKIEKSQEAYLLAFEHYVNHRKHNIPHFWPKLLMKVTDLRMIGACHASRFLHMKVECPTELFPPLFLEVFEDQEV

Row | Compound | −log RIC20 (relative anti-TH potency) [1] | TH disrupting effect determined in GH3 proliferation assay [1] | binding affinity with TRα [2]
1 | Oc1c(Br)cc(Br)cc1Oc1ccc(Br)cc1Br [2′-OH-BDE-68] | 7.15 | – | –
2 | Oc1cc(Br)c(Br)c(Br)c1Oc1cc(Br)c(Br)c(Br)c1 [6-HO-BDE-157] | 8.14 | – | –
3 | Oc1c(Br)c(Br)c(Oc2c(Br)cc(Br)cc2Br)c(Br)c1Br [4-HO-BDE-188] | 8.42 | – | –
4 | Oc1c(Br)cc(Oc2ccc(Br)cc2Br)c(Br)c1Br [4-HO-BDE-90] | 7.59 | antagonists of the TR | –
5 | Oc1c(Br)c(Br)c(Br)c(Br)c1Oc1ccc(Br)cc1Br [6-HO-BDE-137] | 8.03 | antagonists of the TR | greater affinities
6 | Oc1cc(Br)c(Oc2ccc(Br)cc2Br)cc1Br [4′-HO-BDE-49] | 7.30 | – | too weak to detect
7 | Oc1cccc(Br)c1Oc1ccc(Br)cc1Br [6′-HO-BDE-17] | 6.78 | – | –
8 | Oc1c(Br)cc(Br)c(Br)c1Oc1ccc(Br)cc1Br [6-HO-BDE-90] | 7.76 | – | –
9 | Oc1c(Oc2ccc(Br)cc2Br)ccc(Br)c1Br [2′-OH-BDE-66] | 7.09 | – | –
10 | Oc1c(Oc2ccc(Br)cc2Br)cc(Br)c(Br)c1Br [2-HO-BDE-123] | 7.44 | antagonists of the TR | greater affinities
11 | Oc1cc(Br)c(Oc2cc(Br)c(Br)cc2Br)cc1Br [4′-HO-BDE-101] | 8.11 | – | –
12 | Oc1ccc(Oc2ccc(Br)cc2Br)c(Br)c1 [4′-OH-BDE-17] | 6.51 | – | –
13 | Oc1c(Br)cc(Br)c(Oc2ccc(Br)cc2Br)c1Br [3-HO-BDE-100] | 7.83 | – | greater affinities; also recorded: one of the strongest binding ligands
